According to US20140121732A1, “METHODS AND COMPOSITIONS FOR ADMINISTERING A SPECIFIC WAVELENGTH PHOTOTHERAPY” (Applied Biology, Inc., priority 2011, published 2014):

Experiment: UV absorbance spectrum and derived transmittance profile of photocream applied at 20 μm
Format: physicochemical
Source text: In one embodiment of the present invention, a band-pass photocream is composed such that it is optimized to have maximum transmittance at a therapeutic wavelength of 311 nm for the treatment of vitiligo, psoriasis, atopic dermatitis, and other skin conditions. Said photocream would contain two UV absorbing active ingredients having UV absorbance spectra that when combined in a determined ratio would have a spectral minimum (valley) at 311 nm. For example, a band-pass photocream could be formulated with silymarin (CAS#22888-70-6) and diethylamino hydroxybenzoyl hexyl benzoate (CAS#302776-68-7) in a weight to weight ratio of 2:3 (or less preferably within the range 1:2 to 5:6, or within the range 5:9 to 7:9) to produce an absorbance spectrum with a spectral valley at 311 nm. Said photocream may contain 0.75% (w/w) silymarin (CAS#22888-70-6) and 1.125% (w/w) diethylamino hydroxybenzoyl hexyl benzoate (CAS#302776-68-7). An illustrative absorbance spectrum for such a composition is shown in FIG. 3 when applied at a thickness of 20 μm. […] Alternatively, a band-pass photocream could be formulated with alpha-glucosyl hesperidin (CAS#161713-86-6) and diethylamino hydroxybenzoyl hexyl benzoate (CAS#302776-68-7) in the weight to weight ratio of 4:1 (or less preferably within the range 3:1 to 5:1, or within the range 7:2 to 9:2) to produce an absorbance spectrum with a spectral valley at 311 nm.
In yet another embodiment, a combination of UV absorbing molecules may be formulated to selectively pass UVB light in the range 306-310 nm for the benefit of maximum vitamin D production while still providing limited protecting from erythema. Said photocream may contain two UV absorbing active ingredients having UV absorption spectra that when combined in a determined ratio would have a spectral minimum (valley) at 308 nm. […] Said photocream could contain 1% (w/w) silymarin (CAS#22888-70-6) and 2.5% (w/w) diethylamino hydroxybenzoyl hexyl benzoate (CAS#302776-68-7) and would produce an absorbance spectra shown in FIG. 7 when applied at a thickness of 20 μm. […]

| SMILES | UV absorbance (in words) |
| --- | --- |
| COc1ccc(C(=O)CC(=O)c2ccc(C(C)(C)C)cc2)cc1 [Avobenzone, avobenzone] | significant absorbance in the UVA |
| COc1ccc([C@@H]2CC(=O)c3c(O)cc(O[C@@H]4O[C@H](CO[C@@H]5O[C@@H](C)[C@H](O)[C@@H](O)[C@H]5O)[C@@H](O)[C@H](O)[C@H]4O)cc3O2)cc1O [Hesperidin, hesperidin] | significant absorbance in the lower UVB range below roughly 310 nm |
| COC(=O)C=Cc1ccccc1 [Methyl cinnamate, methyl cinnamate] | significant absorbance in the lower UVB range below roughly 310 nm |
